Source: patent US10570151B2, “Biologically active molecules, conjugates thereof, and therapeutic uses” (priority 2013, dated 2020)
Where two headings read alike, the source gives them in different places.

How the values were obtained:
Format in all cases: cell-based
HEK293 cells = assay: Anti-proliferation activity of unconjugated compounds in HEK293; settings: Homo sapiens
Description: (§1) Cells were seeded in PDL-coated 96 well plates at 375 (MMT/hEGFRvIII), 1500 (U251/hEGFRvIII), 2000 (HEK293/hEGFRvIII), or 3000 (C4-2, PC3/hSTEAP1, T47D, and U87-MG) cells per well in complete growth media and grown overnight. For cell viability curves, serially diluted conjugates or free representative payloads were added to the cells at final concentrations ranging from 500 nM to 1 pM and incubated for 3 days. To measure viability in MMT/hEGFRvIII, U251/hEGFRvIII, HEK293/hEGFRvIII, C4-2, PC3/hSTEAP1, and U87-MG, cells were incubated with CCK8 (Dojindo) for the final 1-3 hours and the absorbance at 450 nm (OD450) was determined on a Flexstation3 (Molecular Devices). To measure viability in T47D, cells were incubated on ice for 30 min in 4% formaldehye+3 ug/ml Hoechst. Images of Hoechst stained nuclei were acquired on the ImageXpress Micro XL (Molecular Devices) and nuclear counts were determined with the Columbus analysis software (PerkinElmer). Background OD450 levels (CCK8) or nuclear counts from digitonin ([…]) treated cells were subtracted from all wells and viability is expressed as a percentage of the untreated controls. IC50 values were determined from a four-parameter logistic equation over a 10-point response curve (GraphPad Prism). All curves and IC50 values are corrected for payload equivalents.
(§2) In a separate set of experiments, compound 6, along with amino analogs 27, 29, and 31 were assayed in HEK293 and U87MG for anti-proliferation activity (FIG. 7). […] (For these experiments, background correction with digitonin was not performed).
(§3) In yet another set of experiments, compounds 6, 9, 33, and 35 were assayed in HEK293, U251, C4-2, PC3, and MMT for anti-proliferation activity (FIG. 8). The trend in potency follows 9>33>35>6 and is consistent for the 5 cell lines assayed.

U87MG cells = assay: Anti-proliferation activity of unconjugated compounds in U87MG; settings: Homo sapiens, U-87 MG, background correction with digitonin not performed (FIG. 7)
Description: as §1, §2

U251 cells = assay: Anti-proliferation activity of unconjugated compounds in U251; settings: Homo sapiens, U-251; U251, unconjugated (Table 2, FIG. 8)
Description: as §1, §3

MMT cells = assay: Anti-proliferation activity of unconjugated compounds in MMT; settings: unconjugated (Table 2, FIG. 8)
Description: as §1, §3

[1] = test system: C4-2 cells (prostate cancer line); assay: In vitro cytotoxicity (cell viability, CCK8) in C4-2 cells; settings: C4-2, unconjugated (Table 2, FIG. 8)
Description: as §1

PC3 cells = assay: Anti-proliferation activity of unconjugated compounds in PC3; settings: Homo sapiens, PC-3; PC3, unconjugated (Table 2, FIG. 8)
Description: as §1, §3

[2] = HEK293, unconjugated, background correction with digitonin not performed (FIG. 7), read-out: IC50
[3] = HEK293, unconjugated (Table 2, FIG. 8), read-out: IC50 (nM) HEK293

Q: `COc1cc2cc(c1Cl)N(C)C(=O)C[C@H](OC(=O)[C@H](C)N(C)C(=O)CCN)[C@]1(C)O[C@H]1[C@H](C)[C@@H]1C[C@@](O)(NC(=O)O1)[C@H](OC)/C=C/C=C(\C)C2` [Compound 27, Maytansin-3-N-methyl-L-(S)-alanine-β-alanine] was tested. Which IC50 (HEK293 cells; [2]) did it give?
A: > 30 nM

Q: What about the IC50 (U87MG cells) of the same compound?
A: > 30 nM

Q: What does the source list for `COc1cc2cc(c1Cl)N(C)C(=O)C[C@H](OC(=O)[C@H](C)N(C)C(=O)CCCN)[C@]1(C)O[C@H]1[C@H](C)[C@@H]1C[C@@](O)(NC(=O)O1)[C@H](OC)/C=C/C=C(\C)C2` [Compound 29, Maytansin-3-N-methyl-L-(S)-alanine-γ-aminobutyramide]?
A: IC50 (HEK293 cells; [2]): > 30 nM; IC50 (U87MG cells): > 30 nM

Q: `CNCCC(=O)N(C)[C@@H](C)C(=O)O[C@H]1CC(=O)N(C)c2cc(cc(OC)c2Cl)C/C(C)=C/C=C/[C@@H](OC)[C@@]2(O)C[C@H](OC(=O)N2)[C@@H](C)[C@@H]2O[C@@]12C` [Compound 6] was tested. Which IC50 (U251 cells) did it give?
A: 150 nM

Q: And the IC50 (HEK293 cells; [3])?
A: 200 nM

Q: What about the IC50 (HEK293 cells; [2]) of the same compound?
A: > 30 nM

Q: What about the IC50 (MMT cells) of the same compound?
A: 250 nM

Q: What about the IC50 [1] of the same compound?
A: 200 nM

Q: And the IC50 (U87MG cells)?
A: > 30 nM

Q: And the IC50 (PC3 cells)?
A: 250 nM

Q: How did the IC50 (U251 cells) turn out when `COc1cc2cc(c1Cl)N(C)C(=O)C[C@H](OC(=O)[C@H](C)N(C)C(=O)CCSSC)[C@]1(C)O[C@H]1[C@H](C)[C@@H]1C[C@@](O)(NC(=O)O1)[C@H](OC)/C=C/C=C(\C)C2` [Compound 9, Maytansin-3-N-methyl-L-(S)-alanine-propanamidyl-3-methyldisulfide] was run?
A: 0.4 nM

Q: And the IC50 (HEK293 cells; [3])?
A: 0.2 nM

Q: What about the IC50 (MMT cells) of the same compound?
A: 0.3 nM

Q: And the IC50 [1]?
A: 1.5 nM

Q: And the IC50 (PC3 cells)?
A: 0.4 nM

Q: Which IC50 (U251 cells) does the source give for `COc1cc2cc(c1Cl)N(C)C(=O)C[C@H](OC(=O)[C@H](C)N(C)C(=O)C1CCNCC1)[C@]1(C)O[C@H]1[C@H](C)[C@@H]1C[C@@](O)(NC(=O)O1)[C@H](OC)/C=C/C=C(\C)C2` [Compound 35, Maytansin-3-N-methyl-L-(S)-alanine-N-carboxy-4-piperidine] here?
A: 25 nM

Q: What about the IC50 (HEK293 cells; [3]) of the same compound?
A: 50 nM

Q: And the IC50 (MMT cells)?
A: 60 nM

Q: And the IC50 [1]?
A: 55 nM

Q: And the IC50 (PC3 cells)?
A: 65 nM

Q: For `COc1cc2cc(c1Cl)N(C)C(=O)C[C@H](OC(=O)[C@H](C)N(C)C(=O)c1ccc3c(c1)CCNC3)[C@]1(C)O[C@H]1[C@H](C)[C@@H]1C[C@@](O)(NC(=O)O1)[C@H](OC)/C=C/C=C(\C)C2` [Compound 33, Maytansin-3-N-methyl-L-N-alanine-N-carboxy-6-(1,2,3,4-tetrahydroisoquinoline)], which IC50 (U251 cells) is on record?
A: 15 nM

Q: And the IC50 (HEK293 cells; [3])?
A: 20 nM

Q: What about the IC50 (MMT cells) of the same compound?
A: 20 nM

Q: What about the IC50 [1] of the same compound?
A: 20 nM

Q: What about the IC50 (PC3 cells) of the same compound?
A: 30 nM

Q: How did the IC50 (HEK293 cells; [2]) turn out when `CNCCCC(=O)N(C)[C@@H](C)C(=O)O[C@H]1CC(=O)N(C)c2cc(cc(OC)c2Cl)C/C(C)=C/C=C/[C@@H](OC)[C@@]2(O)C[C@H](OC(=O)N2)[C@@H](C)[C@@H]2O[C@@]12C` [Compound 31, Maytansin-3-N-methyl-L-(8)-alanine-N-Me-γ-aminobutyramide] was run?
A: > 30 nM

Q: And the IC50 (U87MG cells)?
A: > 30 nM
